The IC50 is the concentration that gives 50% inhibition. Read a low IC50 as greater potency.

Each structure is given as a SMILES string.

IC50 data for 4 compounds are collected here from ChEMBL document CHEMBL1153006, “Synthesis, NMR characterization and in vitro antitumor evaluation of new aminophosphonic acid diesters” (Eur J Med Chem, 2009).

What all share (type): functional, cell-based
One assay concerns K562. Nature of the assay: Cytotoxicity against human K562 cells after 72 hrs by MTT assay. The conditions noted are these: K562, 72 h. (Formazan colour is commonly taken as a measure of viable cells.)
The subject of assay [1] is HL-60. Nature of the assay: Cytotoxicity against multidrug-resistant human HL60 cells overexpressing in MRP-1 after 72 hrs by MTT assay. The settings on record: HL-60, 72 h.
The subject of another assay is LAMA-84. The experiment in a line: Cytotoxicity against human LAMA-84 cells after 72 hrs by MTT assay. The conditions noted are these: LAMA-84, 72 h.
For assay [2], the system named is HL-60. Nature of the assay: Cytotoxicity against human HL60 cells after 72 hrs by MTT assay. The settings on record: HL-60, 72 h.

Take `Cc1ccc(/N=C\c2ccc(N(C)C)cc2)cc1`: the IC50 in the assay on K562 is 213 µM; in the assay on HL-60 [1] it was 226 µM; with LAMA-84, 252 µM; in the assay with HL-60 [2], greater than 400 µM.
The matching figures for `CCOP(=O)(OCC)C(NCCCN(C)C)c1ccco1` (stereo unspecified): 353 µM, 190 µM, greater than 400 µM and 163 µM.
Take `CCOP(=O)(OCC)C(Nc1ccc(C)cc1)c1ccc(N(C)C)cc1` (stereo unspecified): the IC50 in the assay with K562 was 42.4 µM; in the assay on HL-60 [1], 107 µM; in the assay on LAMA-84 it was 119 µM; in the assay with HL-60 [2] it was greater than 400 µM.
The matching figures for `Cc1ccc(/N=C\c2ccco2)cc1` [N-FURFURYLIDENE-P-TOLUIDINE]: 29.9 µM, 68.6 µM, 39.9 µM and greater than 400 µM.
